Drawing on patent US11498930B2 (BLUERAY THERAPEUTICS (SHANGHAI) CO., LTD., priority 2018, dated 2022), this text covers IC50 for 25 molecules.

Where two headings read alike, the source gives them in different places.

One assay concerns the target SHP2^E76A protein (Homo sapiens (Human), UniProt Q06124, E76A). The assay can be described thus: SHP2 enzyme activity inhibition experiment. Type of assay: biochemical. As for the experimental part: Compound powders were dissolved in DMSO to prepare mother liquor.
During the experiment, the stock solutions of the compounds were subjected to 3-fold gradient dilution with DMSO, and 10 different test concentrations of each compound were set. […] The protein used was the activated protein SHP^2E76A with amino acid mutation at position 76 of the protein, and the substrate used was DiFMUP (Invitrogen, E12020). […] 50 µL of enzyme solution was added to the detection wells, followed by 50 µL of substrate. […] GraphPad Prism 5 was used for nonlinear regression analysis, and the curve of enzyme activity versus compound concentration was fitted by the equation Y=Bottom+(Top-Bottom)/(1+10^((Log IC50−X)*HillSlope)) to calculate the IC50 value of each compound.

Assay [1] relates to phosphorylation level of intracellular protein kinase (ERK) in MOLM13 cells. The assay can be described thus: Phosphorylated protein kinase (p-ERK) cell experiment (AlphaLISA). Type of assay: cell-based. As for the experimental part: The inhibitory activities of the compounds on the phosphorylation level of intracellular protein kinase (ERK) were determined by AlphaLISA method.
Firstly, the cells were treated with the compounds. The compounds to be tested were subjected to 3-fold dilution with 100% DMSO, and a total of 9 different concentration gradients were set. MOLM13 cells were then seeded into 96-well plates at a density of 30,000 cells per well in a volume of 100 µL per well. […] of DMSO or the test compounds with different concentrations was then transferred into each well, setting two duplicates for each concentration, and the final concentration of DMSO was controlled at 0.5%.
Secondly, the cells were lysed. After 2 hours of cell treatment, the medium was removed, and the cells were washed 3 times with phosphate buffered saline. 50 µL of freshly prepared lysis buffer was added to each well, and the plates were shaken and kept at room temperature for 10 minutes.
Thirdly, the phosphorylated extracellular signal-regulated kinase (p-ERK) was detected by AlphaLISA@ SureFire® Ultra™ p-ERK 1/2 (Thr202/Tyr204) kit (Perkin Elmer, ALSU-PERK-A10K). 10 µL of the above lysate was transferred to a 384-well plate (Perkin Elmer, 6005350), and the phosphorylation level of the extracellular signal-regulated kinase of the sample was detected according to the product instructions. The signal was read using AlphaScreen detector on Spectra max i3 (Molecular Devices). The percentage of inhibition (%) was calculated by the following formula: Inhibition percentage(%)=(1−p-ERK signal of compound-treated cells/p-ERK signal of DMSO-treated cells)*100
On the technique in general: In Alpha technology, singlet oxygen from a donor bead excites a nearby acceptor bead.

The test system of a further assay is MOLM-13 cells. The assay can be described thus: MOLM-13 cell proliferation experiment. Type of assay: cell-based. The settings on record: Homo sapiens. As for the experimental part:
After 3 days, 5 µL of CellTiter-Glo reagent (Promega, ZG7572) was added to each well, and the plates were kept at room temperature in the dark for 10 minutes. The […] was detected by Spectra max i3 (Molecular Devices). The relative growth rate of the treated cells was compared with that of DMSO control.

Where [2] appears, read: SHP2 enzyme activity, Tables 1.1 and 1.2, read-out: IC50.
Where [3] appears, read: Table 4, read-out: SHP2 enzyme activity IC50.
Where [4] appears, read: Homo sapiens, MOLM-13, MOLM13 cells, Table 4, read-out: p-ERK IC50.
The mark [5] stands for this setting: Homo sapiens, MOLM-13, p-ERK, MOLM13 cells, 2 hours of cell treatment, Tables 2.1 and 2.2, read-out: IC50.
The mark [6] stands for this setting: MOLM-13, 72 h, MOLM-13 cell proliferation, 3 days, Tables 3.1 and 3.2, read-out: IC50.
Where [7] appears, read: MOLM-13, read-out: MOLM-13 cell proliferation IC50.
Setting [8] is: p-ERK, MOLM13 cells, 2 hours of cell treatment, Tables 2.1 and 2.2, read-out: IC50.

SHP2^E76A protein, sequence (Q06124 whole entry E76A): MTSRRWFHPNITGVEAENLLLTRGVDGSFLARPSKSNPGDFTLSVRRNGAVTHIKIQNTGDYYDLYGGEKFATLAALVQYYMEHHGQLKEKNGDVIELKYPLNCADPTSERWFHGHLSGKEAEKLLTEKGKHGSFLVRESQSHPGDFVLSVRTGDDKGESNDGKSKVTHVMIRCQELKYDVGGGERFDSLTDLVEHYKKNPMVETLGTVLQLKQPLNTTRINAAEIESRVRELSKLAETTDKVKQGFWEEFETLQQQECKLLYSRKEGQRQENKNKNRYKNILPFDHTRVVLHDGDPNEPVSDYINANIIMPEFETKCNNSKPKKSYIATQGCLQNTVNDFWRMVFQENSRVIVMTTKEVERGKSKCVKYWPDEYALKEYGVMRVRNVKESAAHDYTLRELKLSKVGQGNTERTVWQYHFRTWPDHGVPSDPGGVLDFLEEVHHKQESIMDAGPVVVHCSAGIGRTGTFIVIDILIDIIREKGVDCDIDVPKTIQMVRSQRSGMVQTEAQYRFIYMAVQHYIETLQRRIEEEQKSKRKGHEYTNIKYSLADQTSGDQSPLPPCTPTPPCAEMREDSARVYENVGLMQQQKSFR

Take `CC1C[C@@H](N)C2(CCN(c3ncc(Sc4ccnc(N)c4Cl)c4nccn34)CC2)C1` (stereo partly drawn) [(1R)-8-(8-((2-amino-3-chloropyridin-4-yl)thio)imidazo[1,2-c]pyrimidin-5-yl)-3-methyl-8-azaspiro[4.5]decan-1-amine]: the IC50 on SHP2^E76A protein (setting [2]) is below 100 nM; at SHP2^E76A protein (setting [3]) it was 32 nM; in assay [1] (setting [4]) it was 59 nM; in assay [1] (setting [5]) it was below 100 nM; with MOLM-13 cells (setting [6]), below 100 nM; in the assay on MOLM-13 cells (setting [7]) it was 54 nM.
As to `Cc1nccc(Sc2cnc(N3CCC4(CCC[C@H]4N)CC3)n3ccnc23)c1Cl` [(R)-8-(8-((3-chloro-2-methyl-pyridin-4-yl)thio)imidazo[1,2-c]pyrimidin-5-yl)-8-azaspiro[4.5]decan-1-amine], the IC50 is below 100 nM on SHP2^E76A protein (setting [2]); 40 nM on SHP2^E76A protein (setting [3]); 180 nM in assay [1] (setting [4]); 100 to 1000 nM in assay [1] (setting [5]); below 100 nM with MOLM-13 cells (setting [6]); 58 nM in the assay on MOLM-13 cells (setting [7]).
`N[C@@H]1CCCC12CCN(c1ncc(Sc3ccnnc3Cl)c3nccn13)CC2` [(R)-8-(8-((3-chloropyridazin-4-yl)thio)imidazo[1,2-c]pyrimidin-5-yl)-8-azaspiro[4.5]decan-1-amine]: the IC50 (on SHP2^E76A protein (setting [2]); in assay [1] (setting [5]); in the assay on MOLM-13 cells (setting [6])) was 100 to 1000 nM each time.
Turning to `N[C@@H]1CCCC12CCN(c1ncc(Sc3cccc(NC(=O)c4c(O)nc5n(c4=O)CCCC5)c3Cl)c3nccn13)CC2`, the IC50 in assay [1] (setting [8]) was below 100 nM.
With `C[C@@H]1OCC2(CCN(c3ncc(Sc4cc(N)ncc4Cl)c4nncn34)CC2)[C@@H]1N`, the IC50 on SHP2^E76A protein (setting [2]) is below 100 nM; with MOLM-13 cells (setting [6]), 1000 to 10000 nM.
In the same order, the values of `N[C@@H]1CCCN(c2ncc(Sc3cccc(Cl)c3Cl)c3nncn23)CC1` [(R)-1-(8-((2,3-dichlorophenyl)thio)-[1,2,4]triazolo[4,3-c]pyrimidin-5-yl)azepan-4-amine] are 100 to 1000 nM and 1000 to 10000 nM.
As for `N[C@@H]1CCCC12CCN(c1ncc(Sc3ccncc3Cl)c3ncnn13)CC2` [(R)-8-(8-((3-chloropyridin-4-yl)thio)-[1,2,4]triazolo[1,5-c]pyrimidin-5-yl)-8-azaspiro[4.5]decan-1-amine], the IC50 on SHP2^E76A protein (setting [2]) and with MOLM-13 cells (setting [6]) was 1000 to 10000 nM each time.
As for `CC1C[C@@H](N)C2(CCN(c3ncc(Sc4cccc(Cl)c4Cl)c4nncn34)CC2)C1` (some centres unmarked), the IC50 in assay [1] (setting [8]) is below 100 nM.
Turning to `Nc1cc(Sc2cnc(N3CCC4(CC3)COC[C@H]4N)n3cnnc23)c(Cl)c(Cl)n1` [(S)-8-(8-((6-amino-2,3-dichloropyridin-4-yl)thio)-[1,2,4]triazolo[4,3-c]pyrimidin-5-yl)-2-oxa-8-azaspiro[4.5]decan-4-amine], the IC50 was below 100 nM at SHP2^E76A protein (setting [2]) and 1000 to 10000 nM with MOLM-13 cells (setting [6]).
In the case of `CC1(N)CCN(c2cnc(-c3cccc(Cl)c3Cl)c(N)n2)CC1` [SHP099, 6-(4-amino-4-methylpiperidin-1-yl)-3-(2,3-dichlorophenyl)pyrazin-2-amine, reference compound], in assay [1] (Homo sapiens, MOLM-13, read-out: p-ERK IC50), the IC50 turned out to be 2070 nM.
Take `Nc1cccc(Sc2cnc(N3CCC4(CCC[C@H]4N)CC3)n3ccnc23)c1Cl` [(R)-8-(8-((3-amino-2-chlorophenyl)thio)imidazo[1,2-c]pyrimidin-5-yl)-8-azaspiro[4.5]decan-1-amine]: the IC50 on SHP2^E76A protein (setting [2]) and with MOLM-13 cells (setting [6]) was 100 to 1000 nM each time.
Consider `CC1C[C@@H](N)C2(CCN(c3ncc(Sc4ccnc(N)c4Cl)c4nncn34)CC2)C1` (stereo partly drawn) [(1R)-8-(8-((2-amino-3-chloropyridin-4-yl)thio)-[1,2,4]triazolo[4,3-c]pyrimidin-5-yl)-3-methyl-8-azaspiro[4.5]decan-1-amine], for which the IC50 was below 100 nM on SHP2^E76A protein (setting [2]) and 100 to 1000 nM with MOLM-13 cells (setting [6]).
On the same counts, the results for `COC(=O)c1ccccc1Sc1cnc(N2CCC3(CCC[C@H]3N)CC2)n2ccnc12` [Methyl (R)-2-((5-(1-amino-8-azaspiro[4.5]decan-8-yl)imidazo[1,2-c]pyrimidin-8-yl)thio)benzoate] are 100 to 1000 nM and 100 to 1000 nM.
On to `CC1(CN)CCN(c2ncc(Sc3cccc(Cl)c3Cl)c3nccn23)CC1` [(1-(8-((2,3-dichlorophenyl)thio)imidazo[1,2-c]pyrimidin-5-yl)-4-methylpiperidin-4-yl)methanamine], for which the IC50 is below 100 nM on SHP2^E76A protein (setting [2]) and 100 to 1000 nM in the assay on MOLM-13 cells (setting [6]).
On the same counts, the results for `N[C@@H]1CCCC12CCN(c1ncc(Sc3cccc4ccccc34)c3nncn13)CC2` [(R)-8-(8-(naphthalen-1-ylthio)-[1,2,4]triazolo[4,3-c]pyrimidin-5-yl)-8-azaspiro[4.5]decan-1-amine] are below 100 nM and 100 to 1000 nM.
`N[C@@H]1CCOC12CCN(c1ncc(Sc3cccc(Cl)c3Cl)c3nccn13)CC2` [(R)-8-(8-((2,3-dichlorophenyl)thio)imidazo[1,2-c]pyrimidin-5-yl)-1-oxa-8-azaspiro[4.5]decan-4-amine]: the IC50 (on SHP2^E76A protein (setting [2]); in assay [1] (setting [5])) was 100 to 1000 nM each time.
On to `N[C@@H]1CCCC12CCN(c1ncc(Sc3cccc(NC(=O)c4c(O)nc5n(c4=O)CCCC5)c3Cl)c3nccn13)CC2` [(R)-N-(3-((5-(1-amino-8-azaspiro[4.5]decan-8-yl)imidazo[1,2-c]pyrimidin-8-yl)thio)-2-chlorophenyl)-2-hydroxy-4-oxo-6,7,8,9-tetrahydro-4H-pyrido[1,2-a]pyrimidin-3-carboxamide], for which the IC50 at SHP2^E76A protein (setting [2]) and with MOLM-13 cells (setting [6]) was 100 to 1000 nM in each case.
Turning to `CC1(N)CCN(c2ncc(Sc3cccc(Cl)c3Cl)c3nccn23)CC1` [1-(8-((2,3-dichlorophenyl)thio)imidazo[1,2-c]pyrimidin-5-yl)-4-methylpiperidin-4-amine], the IC50 at SHP2^E76A protein (setting [2]) and in the assay on MOLM-13 cells (setting [6]) was 100 to 1000 nM each time.
Take `CC(C)c1ccccc1Sc1cnc(N2CCC3(CCC[C@H]3N)CC2)n2cnnc12` [(R)-8-(8-((2-isopropylphenyl)thio)-[1,2,4]triazolo[4,3-c]pyrimidin-5-yl)-8-azaspiro[4.5]decan-1-amine]: the figures for the IC50 at SHP2^E76A protein (setting [2]) and with MOLM-13 cells (setting [6]) were 100 to 1000 nM and 1000 to 10000 nM, respectively.
In the same order, the values of `NCC1(c2ccccc2)CCN(c2ncc(Sc3cccc(Cl)c3Cl)c3nncn23)CC1` [(1-(8-((2,3-dichlorophenyl)thio)-[1,2,4]triazolo[4,3-c]pyrimidin-5-yl)-4-phenylpiperidin-4-yl)methanamine] are below 100 nM and 100 to 1000 nM.
On the same counts, the results for `CC1C[C@@H](N)C2(CCN(c3ncc(Sc4cc(N)nc(Cl)c4Cl)c4nccn34)CC2)C1` (stereo partly drawn) [(1R)-8-(8-((6-amino-2,3-dichloropyridin-4-yl)thio)imidazo[1,2-c]pyrimidin-5-yl)-3-methyl-8-azaspiro[4.5]decan-1-amine] are below 100 nM and below 100 nM.
On the same counts, the results for `COc1ccccc1Sc1cnc(N2CCC3(CCC[C@H]3N)CC2)n2cnnc12` [(R)-8-(8-((2-methoxyphenyl)thio)-[1,2,4]triazolo[4,3-c]pyrimidin-5-yl)-8-azaspiro[4.5]decan-1-amine] are 100 to 1000 nM and 100 to 1000 nM.
For `N[C@@H]1CCCC12CCN(c1ncc(Sc3cccc(Cl)c3Cl)c3nncn13)CC2` [(R)-8-(8-((2,3-dichlorophenyl)thio)-[1,2,4]triazolo[4,3-c]pyrimidin-5-yl)-8-azaspiro[4.5]decan-1-amine], the IC50 is below 100 nM at SHP2^E76A protein (setting [2]) and 100 to 1000 nM in the assay on MOLM-13 cells (setting [6]).
In the same order, the values of `Cc1nccc(Sc2cnc(N3CCC4(CC3)CO[C@@H](C)[C@H]4N)n3ncnc23)c1Cl` [(3S,4S)-8-(8-((3-chloro-2-methylpyridin-4-yl)thio)-[1,2,4]triazolo[1,5-c]pyrimidin-5-yl)-3-methyl-2-oxa-8-azaspiro[4.5]decan-4-amine] are 100 to 1000 nM and 1000 to 10000 nM.
Consider `N[C@@H]1CCCC12CCN(c1ncc(Sc3cccnc3Cl)c3nccn13)CC2`, for which the IC50 (in assay [1] (setting [5]); with MOLM-13 cells (setting [6])) was 100 to 1000 nM throughout.
